# Laboratory results published in US10258603B2 (priority 2014, dated 2019).
# Target: T1, TAF1-BD2 (Homo sapiens, UniProt P21675)
# T1 sequence (P21675 1525-1656): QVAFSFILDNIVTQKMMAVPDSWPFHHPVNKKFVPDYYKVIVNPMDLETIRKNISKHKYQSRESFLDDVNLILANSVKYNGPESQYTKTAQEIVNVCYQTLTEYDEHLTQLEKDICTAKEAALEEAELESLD
# Test: TAF1-BD2 TR-FRET Binding Assay
# Details: Assay: TAF-1
# Method: Specifically, in a 384 well ProxiPlate TAF1-BD2 (6 nM final) was combined with biotin-ligand (50 nM final) in 50 mM HEPES (pH 7.5), 50 mM NaCl, 1 mM TCEP, 0.01% (w/v) BSA, and 0.008% (w/v) Brij-35 either in the presence of DMSO (final 0.2% DMSO) or compound dilution series in DMSO. After 10 minutes incubation at room temperature, a mixture Eu-W1024 Anti-6×His antibody (Perkin Elmer AD0110) and SureLight™ Allophycocyanin-Streptavidin (APC-SA, Perkin Elmer CR130-100) were added to a final concentrations of 0.2 nMolar antibody and 25 nMolar APC-SA, respectively. After twenty minutes of equilibration, the plates were read on an Envision instrument and IC50s calculated using a four parameter non-linear curve fit.
row,SMILES,IC50
1,CC(C)N1CC[C@@H](NC(=O)c2cn(C)c(=O)c3[nH]ccc23)[C@H](F)C1 (relative stereo) [Example 209],580 nM
2,CC(C)N1CC[C@H](NC(=O)c2cn(C)c(=O)c3[nH]ccc23)[C@H](C)C1 (relative stereo) [Example 238],2100 nM
3,CC(C)N1CC[C@H](NC(=O)c2cn(C)c(=O)c3[nH]ccc23)[C@H](F)C1 (relative stereo) [Example 240],3400 nM
4,"CN1CCC(NC(=O)c2cn(C)c(=O)c3[nH]ccc23)CC1 [Example 4, 6-methyl-N-(1-methyl-4-piperidyl)-7-oxo-1H-pyrrolo[2,3-c]pyridine-4-carboxamide]",320 nM
5,"CC=CCn1cc(C(=O)NCC2CN(C(=O)OC(C)(C)C)C2)c2cc[nH]c2c1=O [Example 10, tert-butyl 3-[[(6-but-2-enyl-7-oxo-1H-pyrrolo[2,3-c]pyridine-4-carbonyl)amino]methyl]azetidine-1-carboxylate]",4700 nM
6,"CC=CCn1cc(C(=O)NCCNC(C)=O)c2cc[nH]c2c1=O [Example 14, N-(2-acetamidoethyl)-6-but-2-enyl-7-oxo-1H-pyrrolo[2,3-c]pyridine-4-carboxamide]",3700 nM
7,"CC=CCn1cc(C(=O)NC(C)(C)C)c2cc[nH]c2c1=O [Example 15, 6-but-2-enyl-N-tert-butyl-7-oxo-1H-pyrrolo[2,3-c]pyridine-4-carboxamide]",970 nM
8,"Cn1cc(C(=O)NCCC2CCN(CC(F)(F)F)CC2)c2cc[nH]c2c1=O [Example 20, 6-methyl-7-oxo-N-[2-[1-(2,2,2-trifluoroethyl)-4-piperidyl]ethyl]-1H-pyrrolo[2,3-c]pyridine-4-carboxamide]",1500 nM
9,"CN1CCC(CCNC(=O)c2cn(C)c(=O)c3[nH]ccc23)CC1 [Example 25, 6-methyl-N-[2-(1-methyl-4-piperidyl)ethyl]-7-oxo-1H-pyrrolo[2,3-c]pyridine-4-carboxamide]",690 nM
10,"Cn1cc(C(=O)NCC(C)(C)N2CCOCC2)c2cc[nH]c2c1=O [Example 36, 6-methyl-N-(2-methyl-2-morpholino-propyl)-7-oxo-1H-pyrrolo [2,3-c]pyridine-4-carboxamide]",1700 nM
11,"CN(C)C1CCN(C(=O)c2cn(C)c(=O)c3[nH]ccc23)CC1 [Example 40, 4-[4-(dimethylamino)piperidine-1-carbonyl]-6-methyl-1H-pyrrolo[2,3-c]pyridin-7-one]",69 nM
12,"Cn1cc(C(=O)NC2CCN(C3CCCC3)CC2)c2cc[nH]c2c1=O [Example 43, N-(1-cyclopentyl-4-piperidyl)-6-methyl-7-oxo-1H-pyrrolo[2,3-c]pyridine-4-carboxamide]",720 nM
13,"Cn1cc(C(=O)NC2CCN(c3ncccn3)CC2)c2cc[nH]c2c1=O [Example 44, 6-methyl-7-oxo-N-(1-pyrimidin-2-yl-4-piperidyl)-1H-pyrrolo[2,3-c]pyridine-4-carboxamide]",340 nM
14,"Cn1cc(C(=O)N2CCC(C(C)(C)C)CC2)c2cc[nH]c2c1=O [Example 47, 4-(4-tert-butylpiperidine-1-carbonyl)-6-methyl-1H-pyrrolo[2,3-c]pyridin-7-one]",2300 nM
15,"Cn1cc(C(=O)N2CCC(c3ccc(Cl)cc3)CC2)c2cc[nH]c2c1=O [Example 48, 4-[4-(4-chlorophenyl)piperidine-1-carbonyl]-6-methyl-1H-pyrrolo[2,3-c]pyridin-7-one]",1500 nM

# Further lines, results first:
row,IC50,SMILES
1,6000 nM,"CC=CCn1cc(C(=O)NCCN2CCN(Cc3ccccc3)CC2)c2cc[nH]c2c1=O [Example 16, N-[2-(4-benzylpiperazin-1-yl)ethyl]-6-but-2-enyl-7-oxo-1H-pyrrolo[2,3-c]pyridine-4-carboxamide]"
2,3600 nM,"CC=CCn1cc(C(=O)NCCCNC(=O)OCc2ccccc2)c2cc[nH]c2c1=O [Example 17, benzyl N-[3-[(6-but-2-enyl-7-oxo-1H-pyrrolo[2,3-c]pyridine-4-carbonyl)amino]propyl]carbamate]"
3,150 nM,"CN1CCCC(CNC(=O)c2cn(C)c(=O)c3[nH]ccc23)C1 (stereo not drawn) [Example 24, 6-methyl-N-[(1-methyl-3-piperidyl)methyl]-7-oxo-1H-pyrrolo[2,3-c]pyridine-4-carboxamide]"
4,6900 nM,"CCN1CCC(CN(C)C(=O)c2cn(C)c(=O)c3[nH]ccc23)C1 (stereo not drawn) [Example 27, N-[(1-ethylpyrrolidin-3-yl)methyl]-N,6-dimethyl-7-oxo-1H-pyirolo[2,3-c]pyridine-4-carboxamide]"
5,210 nM,"Cn1cc(C(=O)NC2CCN(c3ccccn3)CC2)c2cc[nH]c2c1=O [Example 42, 6-methyl-7-oxo-N-[1-(2-pyridyl)-4-piperidyl]-1H-pyrrolo[2,3-c]pyridine-4-carboxamide]"

# Target: T2, CECR2 (Homo sapiens, UniProt Q9BXF3)
# T2 construct: 424-538 was cloned, expressed, and purified to homogeneity; Flag; made in house
# T2 sequence (Q9BXF3 424-538 limits assumed): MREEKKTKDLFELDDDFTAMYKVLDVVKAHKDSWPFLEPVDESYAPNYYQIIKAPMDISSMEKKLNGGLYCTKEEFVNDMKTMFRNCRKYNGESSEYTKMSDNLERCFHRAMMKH
# Test: CECR2 TR-FRET Binding Assay
# Details: read-out: IC50
# Text: IC50 Measurements for Inhibitors Using CECR2 TR-FRET Binding Assay
row,SMILES,IC50
1,CCN(C(=O)c1cn(C)c(=O)c2[nH]ccc12)C1CCN(C(C)C)CC1 [Example 227],2000 nM
2,CN(CC1CCN(CCC2CCCCC2)CC1)C(=O)c1cn(C)c(=O)c2[nH]ccc12 [Example 229],640 nM
3,CN(CC1CCN(CC2CCCOC2)CC1)C(=O)c1cn(C)c(=O)c2[nH]ccc12 (stereo not drawn) [Example 230],790 nM
4,CN(CC1CCN(CC2CCOCC2)CC1)C(=O)c1cn(C)c(=O)c2[nH]ccc12 [Example 234],1000 nM
5,CC(C)N1CCCC(NC(=O)c2cn(C)c(=O)c3[nH]ccc23)CC1 (stereo not drawn) [Example 241],1100 nM
6,CC(C)N1C2CCC1CC(N(C)C(=O)c1cn(C)c(=O)c3[nH]ccc13)C2 (stereo not drawn) [Example 242],1400 nM
7,CC(C)N1CCC(N(C(=O)c2cn(C)c(=O)c3[nH]ccc23)C2CC2)CC1 [Example 243],2000 nM

# Other lines, results leading:
row,IC50,SMILES
1,970 nM,CN(C(=O)c1cn(C)c(=O)c2[nH]ccc12)C1CCN(Cc2ccccc2Cl)CC1 [Example 223]
2,780 nM,CN(C(=O)c1cn(C)c(=O)c2[nH]ccc12)C1CCN(Cc2cccc(Cl)c2)CC1 [Example 224]
3,1400 nM,COCCN1CCC(N(C)C(=O)c2cn(C)c(=O)c3[nH]ccc23)CC1 [Example 225]
4,700 nM,CN(C(=O)c1cn(C)c(=O)c2[nH]ccc12)C1CCN(CCC2CC2)CC1 [Example 226]
5,1200 nM,COCCCN1CCC(CN(C)C(=O)c2cn(C)c(=O)c3[nH]ccc23)CC1 [Example 232]
6,770 nM,CN(CC1CCN(CC2CCC2)CC1)C(=O)c1cn(C)c(=O)c2[nH]ccc12 [Example 233]
7,4800 nM,"C=CCn1cc(C(=O)N(C)[C@H]2[C@@H]3CN(c4ccnc(C#N)n4)C[C@@H]32)c2cc[nH]c2c1=O [Example 249, 6-allyl-N-[(1S,5R)-3-(2-cyanopyrimidin-4-yl)-3-azabicyclo[3.1.0]hexan-6-yl]-N-methyl-7-oxo-1H-pyrrolo[2,3-c]pyridine-4-carboxamide]"
8,6200 nM,C=CCn1cc(C(=O)N(C)C2C3CN(c4ccncn4)CC32)c2cc[nH]c2c1=O (stereo not drawn) [Example 251]
9,980 nM,CN(C(=O)c1cn(C)c(=O)c2[nH]ccc12)C1CCN(CCc2ccccc2F)CC1 [Example 253]
10,700 nM,CN(C(=O)c1cn(C)c(=O)c2[nH]ccc12)C1CCN(CCc2ccc(Cl)cc2)CC1 [Example 254]
11,30 nM,C=CCn1cc(C(=O)N(C)C2CCN(c3cc(C4CC4)nc(C)n3)CC2)c2cc(C)[nH]c2c1=O [Example 266]
12,17 nM,"C=CCn1cc(C(=O)N(C)C2CCN(c3cc(C)nc(C4CC4)n3)CC2)c2cc(C)[nH]c2c1=O [Example 267, 6-allyl-N-(1-(2-cyclopropyl-6-methylpyrimidin-4-yl)piperidin-4-yl)-N,2-dimethyl-7-oxo-6,7-dihydro-1H-pyrrolo[2,3-c]pyridine-4-carboxamide]"
13,23 nM,"C=CCn1cc(C(=O)N(C)C2CCN(c3cc(-c4cccnc4C)ncn3)CC2)c2cc(C)[nH]c2c1=O [Example 268, 6-allyl-N,2-dimethyl-N-[1-[6-(2-methyl-3-pyridyl)pyrimidin-4-yl]-4-piperidyl]-7-oxo-1H-pyrrolo[2,3-c]pyridine-4-carboxamide]"
14,33 nM,C=CCn1cc(C(=O)N(C)C2CCN(c3cc(-c4ccco4)ncn3)CC2)c2cc(C)[nH]c2c1=O [Example 269]
15,18 nM,C=CCn1cc(C(=O)N(C)C2CCN(c3cc(-c4ccccc4Cl)ncn3)CC2)c2cc(C)[nH]c2c1=O [Example 270]
16,11 nM,"C=CCn1cc(C(=O)N(C)C2CCN(c3cc(-c4ccccn4)ncn3)CC2)c2cc(C)[nH]c2c1=O [Example 271, 6-allyl-N,2-dimethyl-7-oxo-N-[1-[6-(2-pyridyl)pyrimidin-4-yl]-4-piperidyl]-1H-pyrrolo[2,3-c]pyridine-4-carboxamide]"
17,35 nM,C=CCn1cc(C(=O)N(C)C2CCN(c3cc(-c4ncccc4C)ncn3)CC2)c2cc(C)[nH]c2c1=O [Example 272]
18,110 nM,"C=CCn1cc(C(=O)N(C)C2CCCc3ccccc32)c2cc(C)[nH]c2c1=O (stereo not drawn) [Example 275, 6-allyl-N,2-dimethyl-7-oxo-N-tetralin-1-yl-1H-pyrrolo[2,3-c]pyridine-4-carboxamide]"
19,38 nM,C=CCn1cc(C(=O)N(C)C2CCCc3ncccc32)c2cc(C)[nH]c2c1=O (stereo not drawn) [Example 276]
20,53 nM,C=CCn1cc(C(=O)N(C)C2CCOc3ccccc32)c2cc(C)[nH]c2c1=O (stereo not drawn) [Example 277]
21,57 nM,C=CCn1cc(C(=O)N(C)C2CCOc3cc(F)ccc32)c2cc(C)[nH]c2c1=O (stereo not drawn) [Example 278]
22,44 nM,"C=CCn1cc(C(=O)N(C)C2CCCc3cnccc32)c2cc(C)[nH]c2c1=O (stereo not drawn) [Example 283, 6-allyl-N,2-dimethyl-7-oxo-N-(5,6,7,8-tetrahydroisoquinolin-5-yl)-1H-pyrrolo[2,3-c]pyridine-4-carboxamide]"
23,53 nM,C=CCn1cc(C(=O)N(C)C2CCCc3ccc(F)cc32)c2cc(C)[nH]c2c1=O (stereo not drawn) [Example 284]
24,150 nM,C=CCn1cc(C(=O)N(C)C2CCCc3c(C)cccc32)c2cc(C)[nH]c2c1=O (stereo not drawn) [Example 285]
